Experimental data reported in article PMC7134596 (Febs Letters, 2004).

Molecular target: SARS‐CoV M^pro (Severe acute respiratory syndrome-related coronavirus, UniProt P0C6X7)
Assay: biochemical

**Q.** With `CC1=C(C(=O)OCCc2ccccc2)C(c2ccccc2[N+](=O)[O-])C2=C(CCCC2=O)N1` (stereo not shown) [MP576, 3‐quinolinecarboxylic acid, 1,4,5,6,7,8‐hexahydro‐2‐methyl‐4‐(2‐nitrophenyl)‐5‐oxo‐, 2‐phenylethyl ester] as the molecule, how does the Ki read?
**A.** The Ki was 2.9 ± 0.3 µM.
